According to patent publication US12466827B2, “1,3,4-oxadiazole derivative compounds as histone deacetylase 6 inhibitor, and the pharmaceutical composition comprising the same” (CHONG KUN DANG PHARMACEUTICAL CORP., priority 2020, dated 2025):

Columns and labels:
human recombinant HDAC1 = biological target: T1, human recombinant HDAC1 (Homo sapiens, UniProt Q13547); assay: In vitro HDAC enzyme activity inhibition assay (HDAC1); format: biochemical; conditions: Fluor de Lys-SIRT1 substrate 10 μM, 30° C., 60 minutes, fluorescence
T1 construct: purchased Enzo Life Sciences, Inc. BML-SE456
T1 sequence (Q13547 whole entry): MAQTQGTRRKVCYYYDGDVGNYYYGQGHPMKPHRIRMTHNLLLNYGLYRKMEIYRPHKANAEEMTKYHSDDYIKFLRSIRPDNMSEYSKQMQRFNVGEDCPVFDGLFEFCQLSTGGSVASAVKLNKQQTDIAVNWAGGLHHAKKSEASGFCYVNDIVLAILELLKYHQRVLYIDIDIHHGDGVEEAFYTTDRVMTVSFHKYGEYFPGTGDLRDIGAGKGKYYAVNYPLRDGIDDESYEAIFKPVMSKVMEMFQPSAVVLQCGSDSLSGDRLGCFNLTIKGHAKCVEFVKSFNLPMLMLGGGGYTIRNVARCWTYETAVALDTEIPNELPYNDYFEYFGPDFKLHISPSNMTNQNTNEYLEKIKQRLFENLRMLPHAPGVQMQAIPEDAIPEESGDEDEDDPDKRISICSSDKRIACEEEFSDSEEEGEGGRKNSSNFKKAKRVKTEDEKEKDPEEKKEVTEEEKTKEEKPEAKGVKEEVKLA
Method: (§1) In order to confirm the selectivity of the compounds represented by Chemical Formula I of the present invention to HDAC6 through HDAC1 and HDAC6 enzyme activity inhibition experiments, a comparison experiment was performed using the material that has already been developed as a control group.
(§2) HDAC enzyme activity was measured using the HDAC Fluorimetric Drug Discovery Kit (Enzo Life Sciences, Inc., BML-AK511, 516). For the HDAC1 enzyme activity test, human recombinant HDAC1 (BML-SE456) was used as an enzyme source and Fluor de Lys-SIRT1 (BNL-KI177) was used as a substrate. After dispensing 5-fold diluted compounds into a 96-well plate, 0.3 μg of enzyme and 10 μM substrate were added to each well of the plate and allowed to react at 30° C. for 60 minutes. Next, Fluor de Lys Developer II (BML-KI176) was added and reacted for 30 minutes to complete the reaction, and then the fluorescence values (Ex 360, Em 460) were measured using a multi-plate reader (Flexstation 3, Molecular Device). The HDAC6 enzymes were tested using human recombinant HDAC6 (382180) from Calbiochem Inc., according to the same protocol as the HDAC1 enzyme activity test method. With respect to the final result values, respective IC50 values were calculated using GraphPad Prism 4.0 program, and results thereof were summarized in Table 4 below.

human recombinant HDAC6 = biological target: T2, human recombinant HDAC6 (Homo sapiens, UniProt Q9UBN7); assay: In vitro HDAC enzyme activity inhibition assay (HDAC6); format: biochemical; conditions: for HDAC6 selectivity (fold): HDAC6 over HDAC1; for IC50: same protocol as the HDAC1 test, human recombinant HDAC6 (Calbiochem)
T2 construct: purchased Calbiochem Inc. 382180
T2 sequence (Q9UBN7 1-1215): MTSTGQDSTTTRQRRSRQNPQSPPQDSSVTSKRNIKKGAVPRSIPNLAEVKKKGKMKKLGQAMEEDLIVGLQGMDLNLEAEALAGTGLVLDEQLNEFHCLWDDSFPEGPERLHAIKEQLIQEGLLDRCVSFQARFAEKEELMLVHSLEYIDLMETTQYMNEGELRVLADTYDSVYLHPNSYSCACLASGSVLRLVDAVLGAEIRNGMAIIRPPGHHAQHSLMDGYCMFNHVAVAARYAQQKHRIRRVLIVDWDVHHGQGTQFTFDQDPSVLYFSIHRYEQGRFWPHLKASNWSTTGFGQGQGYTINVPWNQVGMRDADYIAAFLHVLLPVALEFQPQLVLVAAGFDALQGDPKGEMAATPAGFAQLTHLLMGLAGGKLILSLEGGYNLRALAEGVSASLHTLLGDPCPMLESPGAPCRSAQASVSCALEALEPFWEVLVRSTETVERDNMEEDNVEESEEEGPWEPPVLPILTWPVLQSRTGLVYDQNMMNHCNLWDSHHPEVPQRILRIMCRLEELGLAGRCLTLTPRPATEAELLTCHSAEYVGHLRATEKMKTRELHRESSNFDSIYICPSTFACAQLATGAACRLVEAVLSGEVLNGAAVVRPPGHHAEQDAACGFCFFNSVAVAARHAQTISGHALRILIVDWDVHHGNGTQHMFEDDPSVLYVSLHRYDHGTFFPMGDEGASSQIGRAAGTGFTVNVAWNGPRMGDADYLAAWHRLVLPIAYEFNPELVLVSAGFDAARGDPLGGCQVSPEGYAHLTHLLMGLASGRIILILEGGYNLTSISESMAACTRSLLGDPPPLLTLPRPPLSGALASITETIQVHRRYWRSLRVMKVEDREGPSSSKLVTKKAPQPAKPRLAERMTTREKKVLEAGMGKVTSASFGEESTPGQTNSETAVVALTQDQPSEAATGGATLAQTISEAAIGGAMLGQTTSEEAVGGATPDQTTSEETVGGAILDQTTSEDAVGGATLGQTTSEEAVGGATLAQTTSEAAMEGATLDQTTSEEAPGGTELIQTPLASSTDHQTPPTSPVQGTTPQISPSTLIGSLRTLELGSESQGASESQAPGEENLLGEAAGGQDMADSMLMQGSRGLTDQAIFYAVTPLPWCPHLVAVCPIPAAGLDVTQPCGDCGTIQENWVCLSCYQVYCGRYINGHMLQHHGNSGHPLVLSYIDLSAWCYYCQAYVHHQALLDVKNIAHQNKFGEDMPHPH
Method: as §1, §2

Row | SMILES | IC50 (human recombinant HDAC1) [nM] | HDAC6 selectivity (fold) (human recombinant HDAC6) | IC50 (human recombinant HDAC6) [nM]
1 | CCC(=O)N1CCC(S(=O)(=O)N(Cc2cn3ccc(-c4nnc(C(F)F)o4)cc3n2)c2ccccc2)CC1 [Compound 4222, N-((7-(5-(difluoromethyl)-1,3,4-oxadiazol-2-yl)imidazo[1,2-a]pyridin-2-yl)methyl)-N-phenyl-1-propionylpiperidine-4-sulfonamide] | > 50000 | 229 | 218
2 | O=C(C1CCC1)N1CCC(S(=O)(=O)N(Cc2cn3ccc(-c4nnc(C(F)F)o4)cc3n2)c2ccccc2)CC1 [Compound 4223, 1-(cyclobutanecarbonyl)-N-((7-(5-(difluoromethyl)-1,3,4-oxadiazol-2-yl)imidazo[1,2-a]pyridine-2-yl)methyl)-N-phenylpiperidine-4-sulfonamide] | > 50000 | 392 | 128
3 | O=C(N1CCC(S(=O)(=O)N(Cc2cn3ccc(-c4nnc(C(F)F)o4)cc3n2)c2ccccc2)CC1)C(F)(F)F [Compound 4224, N-((7-(5-(difluoromethyl)-1,3,4-oxadiazol-2-yl)imidazo[1,2-a]pyridin-2-yl)methyl)-N-phenyl-1-(2,2,2-trifluoroacetyl)piperidine-4-sulfonamide] | > 50000 | 354 | 141
4 | CS(=O)(=O)N1CCC(S(=O)(=O)N(Cc2cn3ccc(-c4nnc(C(F)F)o4)cc3n2)c2ccccc2)CC1 [Compound 4225, N-((7-(5-(difluoromethyl)-1,3,4-oxadiazol-2-yl)imidazo[1,2-a]pyridin-2-yl)methyl)-1-(methylsulfonyl)-N-phenylpiperidine-4-sulfonamide] | > 50000 | 530 | 94.4
5 | COC(=O)N1CCC(S(=O)(=O)N(Cc2cn3ccc(-c4nnc(C(F)F)o4)cc3n2)c2ccccc2)CC1 [Compound 4226, methyl 4-(N-((7-(5-(difluoromethyl)-1,3,4-oxadiazol-2-yl)imidazo[1,2-a]pyridin-2-yl)methyl)-N-phenylsulfamoyl)piperidine-1-carboxylate] | > 50000 | 432 | 116
6 | CN(C)C(=O)N1CCC(S(=O)(=O)N(Cc2cn3ccc(-c4nnc(C(F)F)o4)cc3n2)c2ccccc2)CC1 [Compound 4227, 4—(N-((7-(5-(difluoromethyl)-1,3,4-oxadiazol-2-yl)imidazo[1,2-a]pyridin-2-yl)methyl)-N-phenylsulfamoyl)-N, N-dimethylpiperidine-1-carboxamide] | > 50000 | 241 | 208
7 | CCN1CCC(S(=O)(=O)N(Cc2cn3ccc(-c4nnc(C(F)F)o4)cc3n2)c2cccc(F)c2)CC1 [Compound 4237, N-((7-(5-(difluoromethyl)-1,3,4-oxadiazol-2-yl)imidazo[1,2-a]pyridin-2-yl)methyl)-1-ethyl-N-(3-fluorophenyl)-piperidine-4-sulfonamide] | > 50000 | 821 | 60.9
8 | CC(C)N1CCC(S(=O)(=O)N(Cc2cn3ccc(-c4nnc(C(F)F)o4)cc3n2)c2cccc(F)c2)CC1 [Compound 4238, N-((7-(5-(difluoromethyl)-1,3,4-oxadiazol-2-yl)imidazo[1,2-a]pyridin-2-yl)methyl)-N-(3-fluorophenyl)-1-isopropylpiperidine-4-sulfonamide] | > 50000 | 653 | 76.6
9 | O=S(=O)(C1CCN(C2CCC2)CC1)N(Cc1cn2ccc(-c3nnc(C(F)F)o3)cc2n1)c1cccc(F)c1 [Compound 4240, 1-cyclobutyl-N-((7-(5-(difluoromethyl)-1,3,4-oxadiazol-2-yl)imidazo[1,2-a]pyridin-2-yl)methyl)-N-(3-fluorophenyl)piperidine-4-sulfonamide] | > 50000 | 936 | 53.4
10 | O=S(=O)(C1CCN(C2COC2)CC1)N(Cc1cn2ccc(-c3nnc(C(F)F)o3)cc2n1)c1cccc(F)c1 [Compound 4241] | > 50000 | 715 | 69.9
11 | O=S(=O)(C1CCN(C2CCCCC2)CC1)N(Cc1cn2ccc(-c3nnc(C(F)F)o3)cc2n1)c1cccc(F)c1 [Compound 4242, 1-cyclohexyl-N-((7-(5-(difluoromethyl)-1,3,4-oxadiazol-2-yl)imidazo[1,2-a]pyridin-2-yl)methyl)-N-(3-fluorophenyl)piperidine-4-sulfonamide] | > 50000 | 800 | 62.5
12 | O=S(=O)(C1CCN(C2CCOCC2)CC1)N(Cc1cn2ccc(-c3nnc(C(F)F)o3)cc2n1)c1cccc(F)c1 [Compound 4243, N-((7-(5-(difluoromethyl)-1,3,4-oxadiazol-2-yl)imidazo[1,2-a]pyridin-2-yl)methyl)-N-(3-fluorophenyl)-1-(tetrahydro-2H-pyran-4-yl)piperidine-4-sulfonamide] | > 50000 | 530 | 94.3

Results, then the molecule that gave them:

Row | IC50 (human recombinant HDAC1) [nM] | HDAC6 selectivity (fold) (human recombinant HDAC6) | IC50 (human recombinant HDAC6) [nM] | SMILES
13 | > 50000 | 486 | 103 | O=S(=O)(C1CCN(c2ncccn2)CC1)N(Cc1cn2ccc(-c3nnc(C(F)F)o3)cc2n1)c1ccccc1 [Compound 4228, N-((7-(5-(difluoromethyl)-1,3,4-oxadiazol-2-yl)imidazo[1,2-a]pyridin-2-yl)methyl)-N-phenyl-1-(pyrimidin-2-yl)piperidine-4-sulfonamide]
14 | > 50000 | 678 | 73.8 | CN1CCC(S(=O)(=O)N(Cc2cn3ccc(-c4nnc(C(F)F)o4)cc3n2)c2cccc(F)c2)CC1 [Compound 4236, N-((7-(5-(difluoromethyl)-1,3,4-oxadiazol-2-yl)imidazo[1,2-a]pyridin-2-yl)methyl)-N-(3-fluorophenyl)-1-methylpiperidine-4-sulfonamide]
15 | > 50000 | 635 | 78.8 | CC(CO)N1CCC(S(=O)(=O)N(Cc2cn3ccc(-c4nnc(C(F)F)o4)cc3n2)c2cccc(F)c2)CC1 (stereo not drawn) [Compound 4239, N-((7-(5-(difluoromethyl)-1,3,4-oxadiazol-2-yl)imidazo[1,2-a]pyridin-2-yl)methyl)-N-(3-fluorophenyl)-1-(1-hydroxypropan-2-yl)piperidine-4-sulfonamide]
16 | > 50000 | 525 | 95.3 | O=S(=O)(C1CCN(C2CCC(F)(F)CC2)CC1)N(Cc1cn2ccc(-c3nnc(C(F)F)o3)cc2n1)c1cccc(F)c1 [Compound 4244, 1-(4,4-difluorocyclohexyl)-N-((7-(5-(difluoromethyl)-1,3,4-oxadiazol-2-yl)imidazo[1,2-a]pyridin-2-yl)methyl)-N-(3-fluorophenyl)piperidine-4-sulfonamide]
17 | > 50000 | 1055 | 47.4 | CC(=O)N1CCC(S(=O)(=O)N(Cc2cn3ccc(-c4nnc(C(F)F)o4)cc3n2)c2cccc(F)c2)CC1 [Compound 4245, 1-acetyl-N-((7-(5-(difluoromethyl)-1,3,4-oxadiazol-2-yl)imidazo[1,2-a]pyridin-2-yl)methyl)-N-(3-fluorophenyl)piperidine-4-sulfonamide]
